Results taken from patent publication US7662810B2, “2-arylmethylazetidine carbapenem derivatives and preparation thereof” (Korea Research Institute of Chemical Technology, priority 2004, dated 2010).
Converted amounts (≈) assume the structure as drawn. Read-outs that look alike come from different tables or passages of the source.

What was measured:
Escherichia coli 078 [1] = assay: Determination of Protection Dose (PD50) in Infected Animal Model; format: in vivo; conditions: mice infected intraperitoneally with Escherichia coli 078; compound injected intraperitoneally 1 hour after the infection
Protocol: In order to get the lethal dose (LD100) of bacteria, […] pyogenes 77A and Escherichia coli 078 were each diluted by 10^2˜10^9 times. […] For a main experiment, 3 to 4 week-old SPF ICR male mice were divided into 4 groups each of 8 to 10 mice, and fasted for 24 hours before a test. The solutions of […] pyogenes 77A and Escherichia coli 078 were concentrated to a level that was 2 to 10 times of LD100, and the concentrated […] pyogenes 77A solution mixed with 10% horse serum and the concentrated Escherichia coli 078 solution mixed with 5% hog gastric mucin were each injected intraperitoneally into the mice of each group to induce whole body infection.
The serially diluted solutions of the compound of Example 14 or meropenem (5 different concentrations) were injected intraperitoneally into the infected mice 1 hour after the infection. All of the mice in the control group injected with physiological salt solution died within 48 hours. The number of survived mouse in each group injected with antibacterial material, were counted to determine PD50, and the 95% confidence interval thereof was calculated employing Probit method.

Escherichia coli DC 2 = assay: Measurement of Minimum Inhibitory Concentration (MIC); format: cell-based
Protocol: (§1) The antibacterial activities of the compounds of the present invention prepared in the above Examples against Gram-positive and Gram-negative bacteria, MRSA and QRS were tested as follows.
(§2) Respective bacterial strains were inoculated into 3 ml of Fleisch extract broth (beef extract 1%, peptone 1%, NaCl 0.3%, Na2HPO4.12H2O 0.2%, pH 7.4-7.5. 10% horse serum was supplemented for Streptococcus pyogenes and S. facium) and cultured on a shaking incubator at 37° C. for 18 hours. About 10^4 CFU/spot of the cultured bacterial strains were inoculated onto Müller-Hinton agar plates containing serial double dilutions (final concentration of 0.002 to 100 μg/ml) of a test compound employing an automatic inoculator (Dynatech, USA), and incubated at 37° C. for 18 hours. When the incubation was completed, the minimum inhibitory concentration was determined. Meropenem (Yuhan corporation, Korea) and vancomycin (Cj Inco., Korea) were used as standard antibiotics, respectively.

[2] = tested on: Salmonella typhimurium 179; assay: as above; format: cell-based; conditions: Salmonella typhimurium 179
Protocol: as §1, §2

[3] = tested on: Enterobacter cloacae 1321 E; assay: as above; format: cell-based
Protocol: as §1, §2

Escherichia coli DC 0 = assay: as above; format: cell-based
Protocol: as §1, §2

[4] = tested on: Klebsiella aerogenes 1522 E; assay: as above; format: cell-based
Protocol: as §1, §2

[5] = tested on: Staphylococcus aureus 503; assay: as above; format: cell-based
Protocol: as §1, §2

[6] = tested on: Staphylococcus faecium MD 8b; assay: as above; format: cell-based; conditions: Staphylococcus faecium MD 8b
Protocol: as §1, §2

[7] = tested on: Klebsiella oxytoca 1082 E; assay: as above; format: cell-based
Protocol: as §1, §2

[8] = tested on: Enterobacter cloacae P 99; assay: as above; format: cell-based
Protocol: as §1, §2

Escherichia coli TEM = assay: as above; format: cell-based
Protocol: as §1, §2

[9] = tested on: Staphylococcus pyogenes 308A; assay: as above; format: cell-based; conditions: Staphylococcus pyogenes 308A
Protocol: as §1, §2

[10] = tested on: Staphylococcus pyogenes 77A; assay: as above; format: cell-based; conditions: Staphylococcus pyogenes 77A
Protocol: as §1, §2

Escherichia coli 1507 E = assay: as above; format: cell-based
Protocol: as §1, §2

Escherichia coli 078 [11] = assay: as above; format: cell-based
Protocol: as §1, §2

[12] = tested on: Staphylococcus aureus 285; assay: as above; format: cell-based
Protocol: as §1, §2

[13] = tested on: Staphylococcus aureus 293; assay: Measurement of Minimum Inhibitory Concentration (MIC), QRS; format: cell-based; conditions: QRS, Staphylococcus aureus 293
Protocol: as §1, §2

[14] = tested on: Staphylococcus aureus 241; assay: as above; format: cell-based
Protocol: as §1, §2

[15] = tested on: Staphylococcus aureus 179; assay: as above; format: cell-based
Protocol: as §1, §2

[16] = tested on: Staphylococcus epidermidis 291; assay: as above; format: cell-based; conditions: QRS, Staphylococcus epidermidis 291
Protocol: as §1, §2

[17] = tested on: Staphylococcus epidermidis 178; assay: as above; format: cell-based; conditions: QRS, Staphylococcus epidermidis 178
Protocol: as §1, §2

[18] = tested on: Staphylococcus aureus 693E; assay: Measurement of Minimum Inhibitory Concentration (MIC), MRSA; format: cell-based; conditions: Staphylococcus aureus 693E
Protocol: as §1, §2

[19] = tested on: Staphylococcus aureus 121E; assay: as above; format: cell-based
Protocol: as §1, §2

[20] = tested on: Staphylococcus aureus 692E; assay: as above; format: cell-based; conditions: Staphylococcus aureus 692E
Protocol: as §1, §2

[21] = tested on: Staphylococcus aureus 690E; assay: as above; format: cell-based; conditions: Staphylococcus aureus 690E
Protocol: as §1, §2

[22] = tested on: Staphylococcus aureus 695E; assay: as above; format: cell-based; conditions: Staphylococcus aureus 695E
Protocol: as §1, §2

[23] = tested on: Staphylococcus aureus 697E; assay: as above; format: cell-based; conditions: Staphylococcus aureus 697E
Protocol: as §1, §2

[24] = tested on: Staphylococcus aureus 256E; assay: as above; format: cell-based; conditions: Staphylococcus aureus 256E
Protocol: as §1, §2

[25] = tested on: Staphylococcus aureus 88E; assay: as above; format: cell-based
Protocol: as §1, §2

[26] = tested on: Staphylococcus aureus 208E; assay: as above; format: cell-based; conditions: Staphylococcus aureus 208E
Protocol: as §1, §2

[27] = tested on: Staphylococcus aureus 694E; assay: as above; format: cell-based; conditions: Staphylococcus aureus 694E
Protocol: as §1, §2

[28] = Test of Pharmacokinetics in Animals (mice); format: in vivo; conditions: mouse, 40 mg/kg
Protocol: The pharmacokinetics of the carbapenem derivatives of the present invention was determined using mice. […] Standard antibiotic samples were prepared by serial two-fold dilution with control blood. […] PK (pharmacokinetic) change indicators (AUC, Tmax, Cmax and T1/2) of the test compound concentration remaining in the mouse blood over time were assayed over a set period.

[29] = Staphylococcus aureus, read-out: MIC

For C[C@@H](O)[C@H]1C(=O)N2C(C(=O)O)=C(S[C@@H]3CN[C@H](C(=O)N(C)C)C3)[C@H](C)[C@H]12 [Meropenem, reference compound], the PD50 (Escherichia coli 078 [1]) was 3.31 mg/kg, the MIC (Escherichia coli DC 2) was 0.025 µg/mL (≈ 0.0652 µM) and the MIC ([2]; Salmonella enterica, read-out: MIC) was 0.049 µg/mL (≈ 0.128 µM). The MIC ([3]; read-out: MIC) was 0.025 µg/mL (≈ 0.0652 µM), the MIC (Escherichia coli DC 0; DC0, read-out: MIC) was 0.025 µg/mL (≈ 0.0652 µM) and the MIC ([4]; read-out: MIC) was 0.049 µg/mL (≈ 0.128 µM). For the same molecule, the MIC ([5]; read-out: MIC) was 0.049 µg/mL (≈ 0.128 µM), the MIC ([6]; MD8B, read-out: MIC) was 6.25 µg/mL (≈ 16.3 µM) and the MIC ([7]; read-out: MIC) was 0.049 µg/mL (≈ 0.128 µM). For the same molecule, the MIC ([8]; P99, read-out: MIC) was 0.049 µg/mL (≈ 0.128 µM), the MIC (Escherichia coli TEM; Escherichia coli) was 0.025 µg/mL (≈ 0.0652 µM) and the MIC [9, 29] was 0.007 µg/mL (≈ 0.0183 µM). It also gave an MIC [10, 29] of 0.004 µg/mL (≈ 0.0104 µM), an MIC (Escherichia coli 1507 E; read-out: MIC) of 0.025 µg/mL (≈ 0.0652 µM) and an MIC (Escherichia coli 078 [11]; read-out: MIC) of 0.025 µg/mL (≈ 0.0652 µM). It also gave an MIC ([12]; read-out: MIC) of 0.098 µg/mL (≈ 0.256 µM), an MIC ([13]; read-out: MIC) of 0.781 µg/mL (≈ 2.04 µM) and an MIC ([14]; Staphylococcus aureus, 241) of 0.195 µg/mL (≈ 0.509 µM). The MIC ([15]; Staphylococcus aureus, 179) was 0.195 µg/mL (≈ 0.509 µM), the MIC ([16]; read-out: MIC) was 1.56 µg/mL (≈ 4.08 µM) and the MIC ([17]; read-out: MIC) was 0.781 µg/mL (≈ 2.04 µM). It also gave an MIC ([18]; read-out: MIC) of 6.25 µg/mL (≈ 16.3 µM), an MIC ([19]; Staphylococcus aureus) of 0.195 µg/mL (≈ 0.509 µM) and an MIC ([20]; read-out: MIC) of 0.098 µg/mL (≈ 0.256 µM). The MIC ([21]; read-out: MIC) was 3.12 µg/mL (≈ 8.15 µM), the MIC ([22]; read-out: MIC) was 0.781 µg/mL (≈ 2.04 µM) and the MIC ([23]; read-out: MIC) was 0.098 µg/mL (≈ 0.256 µM). The MIC ([24]; read-out: MIC) was 0.049 µg/mL (≈ 0.128 µM), the MIC ([25]; Staphylococcus aureus) was 0.195 µg/mL (≈ 0.509 µM) and the MIC ([26]; read-out: MIC) was 0.098 µg/mL (≈ 0.256 µM). It also gave an MIC ([27]; read-out: MIC) of 6.25 µg/mL (≈ 16.3 µM), an AUC ([28]; ICR, whole blood, mice, SC, read-out: AUC (area under blood-medicament concentration curve till 24 hours from administration)) of 7500 ng·h/mL and a Cmax ([28]; ICR, whole blood, mice, SC, read-out: Cmax) of 13400 ng/mL. For the same molecule, the half-life ([28]; ICR, whole blood, mice, SC, read-out: T1/2 (half time of blood-medicament concentration) (converted)) was 25.8 min and the Tmax ([28]; ICR, whole blood, mice, SC, read-out: Tmax) was 19.8 min.

COc1ccc(CN2CC(SC3=C(C(=O)[O-])N4C(=O)[C@H]([C@@H](C)O)[C@H]4[C@H]3C)C2)cc1.[K+] [Exam. 14, Potassium(1R,5S,6S)-2-[1-(4-methoxybenzyl)-azetidine-3-yl-thio]-6-[(1R)-1-hydroxylethyl]-1-methylcarbapen-2-em-3-carboxylate] gave a PD50 (Escherichia coli 078 [1]) of 1.44 mg/kg, an MIC (Escherichia coli DC 2) of 0.049 µg/mL and an MIC [2] of 0.098 µg/mL. The MIC [3] was 0.098 µg/mL, the MIC (Escherichia coli DC 0) was 0.049 µg/mL and the MIC [4] was 0.195 µg/mL. The MIC [5] was 0.025 µg/mL, the MIC [6] was 1.563 µg/mL and the MIC [7] was 0.098 µg/mL. It also gave an MIC [8] of 0.391 µg/mL, an MIC (Escherichia coli TEM; Escherichia coli TEM) of 0.195 µg/mL and an MIC [9] of 0.002 µg/mL. The MIC [10] was 0.002 µg/mL, the MIC (Escherichia coli 1507 E) was 0.098 µg/mL and the MIC (Escherichia coli 078 [11]) was 0.013 µg/mL. For the same molecule, the MIC [12] was 0.098 µg/mL, the MIC [13] was 0.098 µg/mL and the MIC ([14]; QRS, Staphylococcus aureus 241) was 0.049 µg/mL. For the same molecule, the MIC ([15]; QRS, Staphylococcus aureus 179) was 0.049 µg/mL, the MIC [16] was 0.391 µg/mL and the MIC [17] was 0.391 µg/mL. The MIC [18] was 0.391 µg/mL, the MIC ([19]; Staphylococcus aureus 121E) was 0.098 µg/mL and the MIC [20] was 0.391 µg/mL. The MIC [21] was 0.391 µg/mL, the MIC [22] was 0.098 µg/mL and the MIC [23] was 0.195 µg/mL. It also gave an MIC [24] of 0.025 µg/mL, an MIC ([25]; Staphylococcus aureus 88E) of 0.1951 µg/mL and an MIC [26] of 0.049 µg/mL. The MIC [27] was 0.098 µg/mL, the “AUC, times higher than meropenem” value ([28]; in vivo) was 10 to 12 times and the “increase in T1/2 than meropenem” value ([28]; in vivo) was “more than 2 times”. For the same molecule, the “AUC (area under blood-medicament concentration curve till 24 hours from administration)” value ([28]; in vivo, po) was 5200 ng·h/mL, the Cmax ([28]; in vivo, po) was 2070 ng/mL and the “T1/2 (half time of blood-medicament concentration)” value ([28]; in vivo, po) was 124 min. For the same molecule, the Tmax ([28]; in vivo, po) was 26.4 min, the “absorption through the oral route” value ([28]; in vivo, po) was “absorbed through the oral route to significant extents” and the “AUC (area under blood-medicament concentration curve till 24 hours from administration)” value ([28]; in vivo, sc) was 79660 ng·h/mL. The Cmax ([28]; in vivo, sc) was 69610 ng/mL, the “T1/2 (half time of blood-medicament concentration)” value ([28]; in vivo, sc) was 45.6 min and the Tmax ([28]; in vivo, sc) was 15 min.
